# Measurements published in patent US20150272939A1, “Identification of Small Molecule Inhibitors of Jumonji AT-Rich Interactive Domain 1A (JARID1A) and 1B (JARID1B) Histone Demethylase” (Yale University, priority 2012, published 2015).
# Where two headings read alike, the source gives them in different places.
# Legend:
# JARID1B = target: T1, JARID1B (Homo sapiens, UniProt Q9UGL1); test: FLAG-JARID1B histone demethylase assay with AlphaScreen detection (HTS and dose response); assay type: biochemical; conditions: for Assay − Artifact Signal (percent): assay signal minus artifact signal; for inhibition at 20 µM / Inhibitory effect (percent): high-throughput screen, compound 20 μM; for inhibition at 20 µM: read-out: Inhibitory effect (percent); for Assay Signal (percent) / Validation result of HTS active: effect of the compound in the JARID1B AlphaScreen demethylase assay: validation of HTS actives; for Assay Signal (percent): effect of compound in JARID1B AlphaScreen assay; for Validation result of HTS active: effect of the compound in the JARID1B AlphaScreen demethylase assay: total signal before subtraction of artifact signal;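 as to Assay Signal (percent): compound tested at 20 µM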;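 as to Assay − Artifact Signal (percent): compound tested at 20 µM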;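 as to all read-outs here: FLAG-tagged JARID1B at 4 nM acting on a biotinylated H3K4me3 peptide, demethylation read by AlphaScreen luminescence, with hits checked against bio-H3K4me2 without enzyme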
# T1 construct: The FLAG tagged full length JARID1B enzyme was expressed in Sf21 insect cells using FLAG-JARID1B baculoviruses; FLAG (N); made in house; host or cells: Sf21 insect cells (baculovirus)
# [1] = AlphaScreen counterscreen against bio-H3K4me2 peptide in the absence of enzyme (artifact signal); conditions: for Artifact Signal (percent): effect of the compound when incubated with bio-H3K4me2 peptide (counterscreen, no enzyme); for Artifact signal: effect of the compound when it is incubated with bio-H3K4me2 peptide: counterscreen, no enzyme;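 as to all read-outs here: counterscreen run without enzyme against bio-H3K4me2 peptide to remove false positive hits from the JARID1 demethylase AlphaScreen screen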
# [2] = standard demethylase conditions (10 μM α-KG, 50 μM Fe (II))
# T1 sequence (Q9UGL1 whole entry): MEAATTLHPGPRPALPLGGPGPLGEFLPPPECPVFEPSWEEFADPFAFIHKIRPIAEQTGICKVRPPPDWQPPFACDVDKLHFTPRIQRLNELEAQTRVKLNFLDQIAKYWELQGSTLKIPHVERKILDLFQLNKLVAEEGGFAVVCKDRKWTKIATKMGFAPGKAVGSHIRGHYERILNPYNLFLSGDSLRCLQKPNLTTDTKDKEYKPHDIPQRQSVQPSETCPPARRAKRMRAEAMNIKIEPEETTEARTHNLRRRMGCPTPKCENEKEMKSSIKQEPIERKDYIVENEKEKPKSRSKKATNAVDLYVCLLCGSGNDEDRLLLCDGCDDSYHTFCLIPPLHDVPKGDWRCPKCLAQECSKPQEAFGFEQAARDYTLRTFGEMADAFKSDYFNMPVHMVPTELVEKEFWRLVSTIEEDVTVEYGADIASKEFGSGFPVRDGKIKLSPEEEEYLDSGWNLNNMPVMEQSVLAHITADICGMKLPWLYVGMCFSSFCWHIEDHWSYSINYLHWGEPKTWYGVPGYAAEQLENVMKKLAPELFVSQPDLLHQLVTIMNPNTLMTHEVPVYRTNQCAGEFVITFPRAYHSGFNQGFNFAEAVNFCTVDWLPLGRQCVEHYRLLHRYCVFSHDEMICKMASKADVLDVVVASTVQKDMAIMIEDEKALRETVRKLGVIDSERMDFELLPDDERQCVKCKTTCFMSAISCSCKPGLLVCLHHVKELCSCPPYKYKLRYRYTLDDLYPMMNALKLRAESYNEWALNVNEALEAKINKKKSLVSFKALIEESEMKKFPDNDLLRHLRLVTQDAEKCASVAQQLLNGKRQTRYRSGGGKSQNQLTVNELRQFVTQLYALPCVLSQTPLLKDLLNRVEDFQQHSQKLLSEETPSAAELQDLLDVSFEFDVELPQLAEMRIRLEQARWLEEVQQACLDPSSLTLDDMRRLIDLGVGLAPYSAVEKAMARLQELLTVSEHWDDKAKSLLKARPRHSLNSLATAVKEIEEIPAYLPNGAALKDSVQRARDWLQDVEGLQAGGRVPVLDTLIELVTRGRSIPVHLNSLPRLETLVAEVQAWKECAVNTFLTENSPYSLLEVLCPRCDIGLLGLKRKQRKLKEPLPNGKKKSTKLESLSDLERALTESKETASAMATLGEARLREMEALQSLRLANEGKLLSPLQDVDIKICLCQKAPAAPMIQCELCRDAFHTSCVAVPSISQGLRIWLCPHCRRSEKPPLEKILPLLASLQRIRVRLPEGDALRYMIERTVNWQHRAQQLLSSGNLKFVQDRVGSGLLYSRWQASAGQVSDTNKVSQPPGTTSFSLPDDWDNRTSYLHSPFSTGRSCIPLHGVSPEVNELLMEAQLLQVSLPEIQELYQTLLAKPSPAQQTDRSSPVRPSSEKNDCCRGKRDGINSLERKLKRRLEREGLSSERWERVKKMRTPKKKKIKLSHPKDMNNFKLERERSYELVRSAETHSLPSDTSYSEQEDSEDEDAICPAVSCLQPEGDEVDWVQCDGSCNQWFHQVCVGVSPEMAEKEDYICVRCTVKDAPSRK
Structure (SMILES),Assay − Artifact Signal (percent) (JARID1B),inhibition at 20 µM (JARID1B; [2]),Assay Signal (percent) (JARID1B),Artifact Signal (percent) [1],Validation result of HTS active: effect of the compound in the JARID1B AlphaScreen demethylase assay (JARID1B),Artifact signal: effect of the compound when it is incubated with bio-H3K4me2 peptide [1],inhibition at 20 µM (JARID1B; IDs marked *: additional hits under reaction condition with 1 mM α-KG),Inhibitory effect (percent) (JARID1B; [2])
"Oc1cc(O)c2c(c1)O[C@H](c1cc(O)c(O)c(O)c1)[C@H](O)C2 [YU155087, EPIGALLOCATECHIN, reference compound]",19.74%,55.5%,44.50%,24.76%,,,,
"O=C(Oc1cc(O)cc2c1C[C@@H](OC(=O)c1cc(O)c(O)c(O)c1)[C@@H](c1cc(O)c(O)c(O)c1)O2)c1cc(O)c(O)c(O)c1 [YU155091, EPIGALLOCATECHIN 3,5-DIGALLATE, reference compound]",,92.2%,,,−0.05,−3.13,,
"O=c1cc(-c2cc(O)c(O)c(O)c2)oc2cc(O)cc(O)c12 [YU155308, HIERACIN, reference compound]",,40.7%,,,34.84,92.13,,
"CC(C)(C#N)O[C@@H]1O[C@H](CO)[C@@H](O)[C@H](O)[C@H]1O [YU155312, LINAMARIN, reference compound]",99.23%,60.3%,92.68%,−6.55%,,,,
"O=c1c(O)c(-c2ccc(O)c(O)c2)oc2c(O)c(O)cc(O)c12 [YU155360, GOSSYPETIN, reference compound]",18.96%,103%,100.77%,81.81%,,,,
"C#CCCCCCCCCCCCC(O)CC(O)COC(C)=O (stereo not shown) [YU155369, AVOCADYNE ACETATE, reference compound]",45.03%,45.1%,44.82%,−0.21%,,,,
"CC(C)=CCc1c2c(c3occ(-c4ccc(O)c(O)c4)c(=O)c3c1O)C=CC(C)(C)O2 [YU155407, POMIFERIN, reference compound]",,,,,16.14,10.52,,91.09%
"C[n+]1cc2c3c(ccc2c2ccc4cc5c(cc4c21)OCO5)OCO3.O=S(=O)([O-])O [YU155443, SANGUINARINE SULFATE, reference compound]",17.36%,,5.51%,−11.85%,,,,62.80%
"COc1cccc2c1C(=O)c1c(O)c3c(c(O)c1C2=O)C[C@@](O)(C(C)=O)C[C@@H]3O[C@H]1C[C@H](N)[C@H](O)[C@H](C)O1 [YU155488, DAUNORUBICIN, reference compound]",45.32%,,48.63%,3.31%,,,,
"O=C(O)c1cc(O)c(O)c(O)c1 [YU155562, GALLIC ACID, reference compound]",51.44%,63.9%,59.88%,8.44%,,,,
Cc1c2c(=O)n(-c3nc4ccccc4s3)[nH]c2cc(=O)n1CCN1CCOCC1 [YU172087],21.21%,56.4%,14.44%,−6.77%,,,,

# Further lines, with some results ahead:
Assay − Artifact Signal (percent) (JARID1B),inhibition at 20 µM (JARID1B; [2]),Assay Signal (percent) (JARID1B),Artifact Signal (percent) [1],Validation result of HTS active: effect of the compound in the JARID1B AlphaScreen demethylase assay (JARID1B),Artifact signal: effect of the compound when it is incubated with bio-H3K4me2 peptide [1],inhibition at 20 µM (JARID1B; IDs marked *: additional hits under reaction condition with 1 mM α-KG),Structure (SMILES),Inhibitory effect (percent) (JARID1B; [2])
,97.5%,,,−1.37,−3.21,,"O=C(O)c1cc(O)c(=O)c2c(O)c(O)c(O)cc2c1 [YU155193, PURPUROGALLIN-4- CARBOXYLIC ACID, reference compound]",
22.49%,45.8%,91.26%,68.78%,,,,"O=c1c(O)c(-c2ccc(O)c(O)c2)oc2cc(O)ccc12 [YU155255, FISETIN, reference compound]",
,105%,,,104.73,99.07,,"O=C1C=C2CC3(O)COc4c(ccc(O)c4O)C3=C2C=C1O (stereo not shown) [YU155257, HEMATEIN, reference compound]",
,65.2%,,,0.59,1.01,,"O=c1cc(-c2ccccc2)oc2cc(O)c(O)c(O)c12 [YU155285, BAICALEIN, reference compound]",
,72.1%,,,74.84,69.07,,"O=c1c(O)c(-c2cc(O)c(O)c(O)c2)oc2cc(O)cc(O)c12 [YU155300, MYRICETIN, reference compound]",
,104%,,,103.69,95.69,,"O=C(O[C@@H]1Cc2c(O)cc(O)cc2O[C@@H]1c1cc(O)c(=O)c2c(O)c(O)cc([C@H]3Oc4cc(O)cc(O)c4C[C@H]3O)c2c1)c1cc(O)c(O)c(O)c1 [YU155347, THEAFLAVIN MONOGALLATES, reference compound]",
31.75%,94.9%,22.64%,−9.11%,,,,"O=c1c(-c2cc(O)c(O)c(O)c2)coc2cc(O)c(O)c(O)c12 [YU155411, IRIGENOL, reference compound]",
,,,,13.64,6.39,42.5%,"O=c1c(O)cccc2cc(O)c(O)c(O)c12 [YU155440, PURPUROGALLIN, reference compound]",
48.87%,56.5%,56.84%,7.97%,,,,"COc1cccc(O)c1O [YU155465, 3-METHOXYCATECHOL, reference compound]",
,73.2%,,,−1.03,−5.30,,"COc1cc2cc3c4cc(OC)c(OC)cc4cc[n+]3c(C)c2cc1OC.[Cl-] [YU155528, CORALYNE CHLORIDE, reference compound]",
57.78%,66%,64.74%,6.96%,,,,"Oc1cc(O)c2c(c1)O[C@H](c1ccc(O)c(O)c1)[C@H](O)C2 [YU155618, EPICATECHIN, reference compound]",
73.02%,96.8%,93.44%,20.42%,,,,"COc1c(O)cc2c(c1O)[C@@H]1O[C@H](CO)[C@@H](O)[C@H](O)[C@H]1OC2=O [YU155621, BERGENIN, reference compound]",
,37.3%,,,3.80,−1.99,,Fc1ccccc1-c1nc2ncccc2o1 [YU172071],
11.36%,92.3%,22.52%,11.16%,,,,Cc1c2c(=O)n(-c3nc4ccccc4s3)[nH]c2cc(=O)n1Cc1ccc(C(=O)O)cc1 [YU172089],
